Experiments:
[1] = refractive index (Na D-line) (dimensionless); xn = mol fraction of the nth substance listed; conditions: 101 kPa, Liquid, Standard Abbe refractometry
[2] = relative permittivity at zero frequency (dimensionless); xn = mol fraction of the nth substance listed; conditions: 101 kPa, Liquid, Parallel plate capacitor

CCCCC(CC)CO (configuration not stated) [2-ethyl-1-hexanol] + CCC(O)CO
Conditions	refractive index, 298.2 K	refractive index, 308.2 K	refractive index, 318.2 K	relative permittivity at zero frequency, 298.2 K	relative permittivity at zero frequency, 308.2 K	relative permittivity at zero frequency, 318.2 K
[1], x2 = 0	1.4293	1.4252	1.4213	–	–	–
[1], x2 = 0.111	1.4295	1.4254	1.4215	–	–	–
[1], x2 = 0.199	1.4295	1.4257	1.4219	–	–	–
[1], x2 = 0.291	1.4299	1.4259	1.4222	–	–	–
[1], x2 = 0.345	1.4301	1.4261	1.4225	–	–	–
[1], x2 = 0.399	1.4303	1.4265	1.4228	–	–	–
[1], x2 = 0.448	1.4307	1.4269	1.423	–	–	–
[1], x2 = 0.501	1.431	1.4272	1.4234	–	–	–
[1], x2 = 0.563	1.4313	1.4275	1.4237	–	–	–
[1], x2 = 0.625	1.432	1.4281	1.4241	–	–	–
[1], x2 = 0.667	1.4323	1.4284	1.4245	–	–	–
[1], x2 = 0.702	1.4327	1.4289	1.4249	–	–	–
[1], x2 = 0.75	1.4335	1.4295	1.4253	–	–	–
[1], x2 = 0.814	1.4342	1.4303	1.4259	–	–	–
[1], x2 = 0.897	1.4354	1.4314	1.427	–	–	–
[2], x2 = 0	–	–	–	7.353	6.362	5.52
[2], x2 = 0.111	–	–	–	7.683	6.922	6.232
[2], x2 = 0.199	–	–	–	8.152	7.52	6.851
[2], x2 = 0.291	–	–	–	8.91	8.32	7.636
[2], x2 = 0.345	–	–	–	9.464	8.8	8.14
[2], x2 = 0.399	–	–	–	10.065	9.44	8.701
[2], x2 = 0.448	–	–	–	10.678	9.995	9.312
[2], x2 = 0.501	–	–	–	11.404	10.69	9.954
[2], x2 = 0.563	–	–	–	12.382	11.556	10.873
[2], x2 = 0.625	–	–	–	13.435	12.625	11.819
[2], x2 = 0.667	–	–	–	14.198	13.357	12.559
[2], x2 = 0.702	–	–	–	14.955	14.023	13.21
[2], x2 = 0.75	–	–	–	15.885	15.005	14.022
[2], x2 = 0.814	–	–	–	17.454	16.338	15.347
[2], x2 = 0.897	–	–	–	19.447	18.115	16.989

CCC(O)CO (configuration not stated) [1,2-butanediol] + C1COCCO1
Conditions	refractive index, 298.2 K	refractive index, 308.2 K	refractive index, 318.2 K	relative permittivity at zero frequency, 298.2 K	relative permittivity at zero frequency, 308.2 K	relative permittivity at zero frequency, 318.2 K
[1], x1 = 0.099	1.4212	1.416	1.4103	–	–	–
[1], x1 = 0.148	1.4221	1.4166	1.4115	–	–	–
[1], x1 = 0.197	1.4227	1.4173	1.4124	–	–	–
[1], x1 = 0.246	1.4236	1.4182	1.4133	–	–	–
[1], x1 = 0.299	1.4242	1.4189	1.4142	–	–	–
[1], x1 = 0.349	1.4253	1.42	1.415	–	–	–
[1], x1 = 0.401	1.4259	1.4208	1.4162	–	–	–
[1], x1 = 0.448	1.4268	1.4218	1.4168	–	–	–
[1], x1 = 0.51	1.428	1.4231	1.4177	–	–	–
[1], x1 = 0.55	1.4287	1.4237	1.4191	–	–	–
[1], x1 = 0.611	1.4297	1.4248	1.4203	–	–	–
[1], x1 = 0.685	1.4311	1.4263	1.4218	–	–	–
[1], x1 = 0.788	1.433	1.4285	1.4236	–	–	–
[1], x1 = 0.855	1.4341	1.4295	1.4253	–	–	–
[1], x1 = 0.907	1.4353	1.4307	1.4265	–	–	–
[1], x1 = 0.96	1.436	1.432	1.4278	–	–	–
[1], x1 = 1	1.4372	1.433	1.4288	–	–	–
[2], x1 = 0.099	–	–	–	3.127	3.015	2.92
[2], x1 = 0.148	–	–	–	3.659	3.496	3.359
[2], x1 = 0.197	–	–	–	4.254	4.064	3.875
[2], x1 = 0.246	–	–	–	4.882	4.632	4.406
[2], x1 = 0.299	–	–	–	5.685	5.407	5.046
[2], x1 = 0.349	–	–	–	6.472	6.079	5.696
[2], x1 = 0.401	–	–	–	7.376	6.854	6.419
[2], x1 = 0.448	–	–	–	8.243	7.732	7.193
[2], x1 = 0.51	–	–	–	9.466	8.817	8.122
[2], x1 = 0.55	–	–	–	10.263	9.592	8.783
[2], x1 = 0.611	–	–	–	11.646	10.84	9.908
[2], x1 = 0.685	–	–	–	13.401	12.41	11.301
[2], x1 = 0.788	–	–	–	16.007	14.739	13.469
[2], x1 = 0.855	–	–	–	17.761	16.335	15.027
[2], x1 = 0.907	–	–	–	19.272	17.748	16.307
[2], x1 = 0.96	–	–	–	20.867	19.214	17.628
[2], x1 = 1	–	–	–	22.143	20.365	18.661
